Laboratory results published in ChEMBL document CHEMBL4431332, “Identification and Investigation of Novel Binding Fragments in the Fatty Acid Binding Protein 6 (FABP6)” (J Med Chem, 2016).

Tests used:
[1] = molecular target: T1, Gastrotropin (Homo sapiens, UniProt P51161); assay: Binding affinity to recombinant human N-terminal His6 and Avi-tagged FABP6 expressed in Escherichia coli NEB cells by surface plasmon resonance method
T1 sequence (P51161 whole entry): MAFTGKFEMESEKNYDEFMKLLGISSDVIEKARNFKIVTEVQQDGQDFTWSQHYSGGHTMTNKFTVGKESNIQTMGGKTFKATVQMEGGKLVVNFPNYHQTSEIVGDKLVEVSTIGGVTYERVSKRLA

[2] = molecular target: T2, Fatty acid-binding protein, liver (Homo sapiens, UniProt P07148); assay: Binding affinity to recombinant human N-terminal His6 and Avi-tagged FABP1 expressed in Escherichia coli NEB cells by surface plasmon resonance method
T2 sequence (P07148 whole entry): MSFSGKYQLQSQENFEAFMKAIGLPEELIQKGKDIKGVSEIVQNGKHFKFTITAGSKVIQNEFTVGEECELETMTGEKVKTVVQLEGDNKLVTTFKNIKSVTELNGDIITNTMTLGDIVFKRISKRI

Row | SMILES | Kd [1] [µM] | Kd [2] [µM]
1 | Cc1nc(Cn2cnc3cc(C)c(C)cc32)cs1 | 400 | 
2 | CS(=O)(=O)N1CCCC(NCc2ccccc2)CC1 (centres undefined) | 300 | > 1000
3 | CN1CCN(C(=O)c2ccc(=O)n(Cc3ccc(Cl)cc3)c2)CC1 | 210 | > 1000
4 | O=C1NCCOc2ccc(F)cc21 | 40 | > 1000
5 | COC(=O)c1cscc1-c1ccc(C(=O)N2CCOCC2)o1 | 80 | > 1000
6 | c1ccc(CNc2ccccn2)cc1 | 300 | 300
7 | Nc1nc2ccc(C(=O)c3ccccc3)cc2[nH]1 | 13 | 
8 | Cc1cc2nc(N)[nH]c2cc1C |  | > 1000
9 | Cc1ccccc1CN1CCN(C(=O)c2cccnc2)CC1 | 290 | > 1000
10 | Nc1c2c(nc3ccccc13)CCCC2 [TACRINE] | 200 | 900
11 | O=C(c1ccco1)N1CCN(Cc2ccc3c(c2)OCO3)CC1 | 210 | 400
